Measured values from US10239832B2, “N-(1-hydroxy-3-(pyrrolidinyl)propan-2-yl)pyrrolidine-3-carboxamide derivatives as glucosylceramide synthase inhibitors” (BIOMARIN PHARMACEUTICAL INC., priority 2013, dated 2019).

Biological target: T1, GCS (Canis lupus familiaris, UniProt A0A8I3MXG6)
T1 construct: endogenous in cells; host or cells: MDCK (Madin-Darby canine kidney) cells, whole-cell lysate
T1 sequence (A0A8I3MXG6 1-394): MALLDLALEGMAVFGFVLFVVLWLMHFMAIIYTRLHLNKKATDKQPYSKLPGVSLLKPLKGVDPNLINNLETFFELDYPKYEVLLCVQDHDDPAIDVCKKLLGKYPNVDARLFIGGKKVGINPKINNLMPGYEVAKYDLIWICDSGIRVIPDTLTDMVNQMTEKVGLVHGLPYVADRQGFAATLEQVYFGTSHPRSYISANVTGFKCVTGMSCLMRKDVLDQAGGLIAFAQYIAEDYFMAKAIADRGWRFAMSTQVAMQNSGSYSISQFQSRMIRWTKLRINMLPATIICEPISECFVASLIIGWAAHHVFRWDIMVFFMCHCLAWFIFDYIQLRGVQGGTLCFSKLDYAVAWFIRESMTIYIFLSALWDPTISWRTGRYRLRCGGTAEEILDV
Experiment: GCS enzymatic assay (MDCK cell lysate, NBD-ceramide to glucosylceramide, LC/MS)
Assay type: biochemical, canine
Conditions: Table 2; class symbols A, B, C; the table does not say which of the assays; read-out: Data Range (IC50 values)
Outline: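 IC50 or percent inhibition came from LC/MS/MS (ESI+, MRM) of NBD-ceramide and glucosylceramide, with tolbutamide as internal standard. The reaction used MDCK (canine) cell lysate as the enzyme source and was ended with acetonitrile. Mock wells received 0.1% DMSO.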

Row | IC50 | SMILES
1 | 100 to 1000 nM | CC(C)Oc1ccc([C@@H](O)[C@@H](CN2CCCC2)NC(=O)[C@@H]2CCN(c3ccc(F)cc3)C2)cn1 [Compound 31, (R)-1-(4-fluorophenyl)-N-((1R,2R)-1-hydroxy-1-(6-isopropoxypyridin-3-yl)-3-(pyrrolidin-1-yl)propan-2-yl)pyrrolidine-3-carboxamide]
2 | 1 to 30 nM | O=C(N[C@H](CN1CCCC1)[C@H](O)c1ccc(OC2CCOCC2)c(Cl)c1)[C@@H]1CCN(c2ccc(F)cc2)C1 [Compound 32, (R)-N-((1R,2R)-1-(3-chloro-4-((tetrahydro-2H-pyran-4-yl)oxy)phenyl)-1-hydroxy-3-(pyrrolidin-1-yl)propan-2-yl)-1-(4-fluorophenyl)pyrrolidine-3-carboxamide]
3 | 1 to 30 nM | O=C(N[C@H](CN1CCCC1)[C@H](O)c1cc(F)c2c(c1)OCCO2)[C@@H]1CCN(c2ccc(F)cc2)C1 [Compound 35, (R)-N-((1R,2R)-1-(8-fluoro-2,3-dihydrobenzo[b][1,4]dioxin-6-yl)-1-hydroxy-3-(pyrrolidin-1-yl)propan-2-yl)-1-(4-fluorophenyl)pyrrolidine-3-carboxamide]
4 | 1 to 30 nM | O=C(N[C@H](CN1CCCC1)[C@H](O)c1cc(F)c2c(c1)OCCO2)[C@H]1CCN(c2ccc(F)cc2)C1 [Compound 35A, (S)-N-((1R,2R)-1-(8-fluoro-2,3-dihydrobenzo[b][1,4]dioxin-6-yl)-1-hydroxy-3-(pyrrolidin-1-yl)propan-2-yl)-1-(4-fluorophenyl)pyrrolidine-3-carboxamide]
5 | 1 to 30 nM | O=C(N[C@H](CN1CCCC1)[C@H](O)c1ccc(OC2CCOCC2)c(Cl)c1)[C@@H]1CCN(c2ccc(Cl)cc2)C1 [Compound 45, (R)-N-((1R,2R)-1-(3-chloro-4-((tetrahydro-2H-pyran-4-yl)oxy)phenyl)-1-hydroxy-3-(pyrrolidin-1-yl)propan-2-yl)-1-(4-chlorophenyl)pyrrolidine-3-carboxamide]

Same assay, conditions: Table 2; class symbols D, E, F, NA (not active); the table does not say which of the assays

Row | Data Range (% inhibition) | SMILES
6 | F (1-49% (or less than 50%)) | O=C(N[C@H](CN1CCCC1)[C@H](O)c1ccc(OC2CCOCC2)c(Cl)c1)[C@H]1CCN(c2ccc(F)cc2)C1 [Compound 32A, (S)-N-((1R,2R)-1-(3-chloro-4-((tetrahydro-2H-pyran-4-yl)oxy)phenyl)-1-hydroxy-3-(pyrrolidin-1-yl)propan-2-yl)-1-(4-fluorophenyl)pyrrolidine-3-carboxamide]
7 | F (1-49% (or less than 50%)) | O=C(N[C@H](CN1CCCC1)[C@H](O)c1ccc(OCC(F)(F)F)nc1)[C@@H]1CCN(c2ccc(Cl)cc2)C1 [Compound 33, (R)-1-(4-chlorophenyl)-N-((1R,2R)-1-hydroxy-3-(pyrrolidin-1-yl)-1-(6-(2,2,2-trifluoroethoxy)pyridin-3-yl)propan-2-yl)pyrrolidine-3-carboxamide]
8 | E (50-74% (or less than 75%)) | O=C(N[C@H](CN1CCCC1)[C@H](O)c1ccc(OCC(F)(F)F)nc1)[C@@H]1CCN(c2ccc(F)cc2)C1 [Compound 34, (R)-1-(4-fluorophenyl)-N-((1R,2R)-1-hydroxy-3-(pyrrolidin-1-yl)-1-(6-(2,2,2-trifluoroethoxy)pyridin-3-yl)propan-2-yl)pyrrolidine-3-carboxamide]
9 | F (1-49% (or less than 50%)) | O=C(N[C@H](CN1CCCC1)[C@H](O)c1ccc2c(c1)OCCO2)[C@@H]1CCN(c2nc3c(s2)CCCC3)C1 [Compound 36, (R)-N-((1R,2R)-1-(2,3-dihydrobenzo[b][1,4]dioxin-6-yl)-1-hydroxy-3-(pyrrolidin-1-yl)propan-2-yl)-1-(4,5,6,7-tetrahydrobenzo[d]thiazol-2-yl)pyrrolidine-3-carboxamide]
10 | F (1-49% (or less than 50%)) | O=C(N[C@H](CN1CCCC1)[C@H](O)c1ccc2c(c1)OCCO2)C1CCN(c2nc3c(s2)CCCC3)C1 (stereo partly drawn) [Compound 36F, N-((1R,2R)-1-(2,3-dihydrobenzo[b][1,4]dioxin-6-yl)-1-3-hydroxy-(pyrrolidin-1-yl)propan-2-yl)-1-(4,5,6,7-tetrahydrobenzo[d]thiazol-2-yl)pyrrolidine-3-carboxamide]
11 | F (1-49% (or less than 50%)) | O=C(N[C@H](CN1CCCCC1)[C@H](O)c1ccc2c(c1)OCCO2)[C@@H]1CCN(c2ccc(Cl)cc2)C1 [Compound 43, (R)-1-(4-chlorophenyl)-N-((1R,2R)-1-(2,3-dihydrobenzo[b][1,4]dioxin-6-yl)-1-hydroxy-3-(piperidin-1-yl)propan-2-yl)pyrrolidine-3-carboxamide]
12 | F (1-49% (or less than 50%)) | O=C(N[C@H](CN1CCCCC1)[C@H](O)c1ccc2c(c1)OCCO2)C1CCN(c2ccc(Cl)cc2)C1 (stereo partly drawn) [Compound 43D, 1-(4-chlorophenyl)-N-((1R,2R)-1-(2,3-dihydrobenzo[b][1,4]dioxin-6-yl)-1-hydroxy-3-(piperidin-1-yl)propan-2-yl)pyrrolidine-3-carboxamide]
13 | F (1-49% (or less than 50%)) | O=C(N[C@H](CN1CCCCC1)[C@H](O)c1ccc2c(c1)OCCO2)[C@H]1CCN(c2ccc(Cl)cc2)C1 [Compound 43E, (S)-1-(4-chlorophenyl)-N-((1R,2R)-1-(2,3-dihydrobenzo[b][1,4]dioxin-6-yl)-1-hydroxy-3-(piperidin-1-yl)propan-2-yl)pyrrolidine-3-carboxamide]
14 | F (1-49% (or less than 50%)) | O=C(N[C@H](CN1CCCCC1)[C@H](O)c1cc(F)c2c(c1)OCCO2)[C@@H]1CCN(c2ccc(Cl)cc2)C1 [Compound 44, (R)-1-(4-chlorophenyl)-N-((1R,2R)-1-(8-fluoro-2,3-dihydrobenzo[b][1,4]dioxin-6-yl)-1-hydroxy-3-(piperidin-1-yl)propan-2-yl)pyrrolidine-3-carboxamide]
15 | F (1-49% (or less than 50%)) | O=C(N[C@H](CN1CCCC1)[C@H](O)c1ccc(OC2CCOCC2)c(Cl)c1)[C@H]1CCN(c2ccc(Cl)cc2)C1 [Compound 45A, (S)-N-((1R,2R)-1-(3-chloro-4-((tetrahydro-2H-pyran-4-yl)oxy)phenyl)-1-hydroxy-3-(pyrrolidin-1-yl)propan-2-yl)-1-(4-chlorophenyl)pyrrolidine-3-carboxamide]
16 | F (1-49% (or less than 50%)) | O=C(N[C@H](CN1CCCCC1)[C@H](O)c1ccc2c(c1)OCCO2)[C@@H]1CCN(c2ccc(F)cc2)C1 [Compound 46, (R)-N-((1R,2R)-1-(2,3-dihydrobenzo[b][1,4]dioxin-6-yl)-1-hydroxy-3-(piperidin-1-yl)propan-2-yl)-1-(4-fluorophenyl)pyrrolidine-3-carboxamide]
17 | F (1-49% (or less than 50%)) | O=C(N[C@H](CN1CCCCC1)[C@H](O)c1ccc2c(c1)OCCO2)C1CCN(c2ccc(F)cc2)C1 (stereo partly drawn) [Compound 46A, N-((1R,2R)-1-(2,3-dihydrobenzo[b][1,4]dioxin-6-yl)-1-hydroxy-3-(piperidin-1-yl)propan-2-yl)-1-(4-fluorophenyl)pyrrolidine-3-carboxamide]

Row | SMILES | Data Range (% inhibition)
18 | O=C(N[C@H](CN1CCCC1)[C@H](O)c1ccc(OCC(F)(F)F)nc1)[C@H]1CCN(c2ccc(Cl)cc2)C1 [Compound 33A, (S)-1-(4-chlorophenyl)-N-((1R,2R)-1-hydroxy-3-(pyrrolidin-1-yl)-1-(6-(2,2,2-trifluoroethoxy)pyridin-3-yl)propan-2-yl)pyrrolidine-3-carboxamide] | NA (not active—a negative value was generated for % inhibition)
19 | O=C(N[C@H](CN1CCCC1)[C@H](O)c1ccc(OCC(F)(F)F)nc1)[C@H]1CCN(c2ccc(F)cc2)C1 [Compound 34A, (S)-1-(4-fluorophenyl)-N-((1R,2R)-1-hydroxy-3-(pyrrolidin-1-yl)-1-(6-(2,2,2-trifluoroethoxy)pyridin-3-yl)propan-2-yl)pyrrolidine-3-carboxamide] | NA (not active—a negative value was generated for % inhibition)
20 | O=C(N[C@H](CN1CCCC1)[C@H](O)c1ccc2c(c1)OCCO2)[C@H]1CCN(c2nc3c(s2)CCCC3)C1 [Compound 36G, (S)-N-((1R,2R)-1-(2,3-dihydrobenzo[b][1,4]dioxin-6-yl)-1-hydroxy-3-(pyrrolidin-1-yl)propan-2-yl)-1-(4,5,6,7-tetrahydrobenzo[d]thiazol-2-yl)pyrrolidine-3-carboxamide] | NA (not active—a negative value was generated for % inhibition)
21 | O=C(N[C@H](CN1CCCCC1)[C@H](O)c1cc(F)c2c(c1)OCCO2)[C@H]1CCN(c2ccc(Cl)cc2)C1 [Compound 44C, (S)-1-(4-chlorophenyl)-N-((1R,2R)-1-(8-fluoro-2,3-dihydrobenzo[b][1,4]dioxin-6-yl)-1-hydroxy-3-(piperidin-1-yl)propan-2-yl)pyrrolidine-3-carboxamide] | NA (not active—a negative value was generated for % inhibition)
22 | O=C(N[C@H](CN1CCCCC1)[C@H](O)c1ccc2c(c1)OCCO2)[C@H]1CCN(c2ccc(F)cc2)C1 [Compound 46B, (S)-N-((1R,2R)-1-(2,3-dihydrobenzo[b][1,4]dioxin-6-yl)-1-hydroxy-3-(piperidin-1-yl)propan-2-yl)-1-(4-fluorophenyl)pyrrolidine-3-carboxamide] | NA (not active—a negative value was generated for % inhibition)
